Measured values: patent US9278982B2, “Targeting human thymidylate kinase induces DNA repair toxicity in malignant tumor cells” (NATIONAL YANG-MING UNIVERSITY, priority 2010, dated 2016)

Tests used:
[1] = biological target: T1, thymidine kinase 1 (TK1) (Homo sapiens, UniProt P04183); assay: Luciferase-coupled TK assay; format: biochemical; conditions: GST-hTK1 protein (5 μg), 10 min preincubation
T1 construct: made in house; host or cells: E. coli JM109 (pGEX-3X-hTK1)
Procedure: FIG. 12. Identification of a novel hTMPK inhibitor. (A) A screen of TMPK inhibitor by luciferase-coupled assay. (B) The chemical structures of YMU1 (compound 21) and related molecules. (C) Effect of YMU1 and derivative compounds on hTMPK inhibition using purified hTMPK protein (0.5 μg) with 10 min preincubation prior to reaction using luciferase-coupled TMPK analysis. (D) Effect of YMU1 on activity of purified TMPK (0.5 μg) and GST-hTK1 protein (5 μg) with 10 min preincubation prior to reaction. Data represent mean±s.d. (n=4) (E) Molecular models of the TMPK-YMU1 complex. Left panel: TMPK/ATP/Mg+2; right panel: TMPK/YMU1. The TMPK is represented in surface electrostatic potential (upper) and structural ribbon (lower). ATP and YMU1 are shown in green and blue stick, respectively, with colored atom (O, red; S, yellow; P, orange). […]
The TK reaction was started by adding purified hTMPK in 50 μl of TK assay buffer (50 mM Tris-HCl, pH 7.5, 1 mM CHAPS, 3 mg/ml BSA, 2.5 mM MgCl2, 50 μM ATP and 100 μM thymidine) in 96 wells plate at 25° C. for 10 min and terminated by adding 200 μl of thymidine (1.25 mM), followed by transferring 10 μl of reaction solution to a white 96-wellplate containing 90 μl of luciferase assay buffer (50 mM Glycine, 0.5 mM EDTA and 5 mM EDTA, pH 7.0, 0.1 μg of luciferase, 50 μM luciferin and 0.1% BSA). The luminescence was measured with a luminescence counter (Packard).

[2] = tested on: MDA-MB231 cells; assay: Comet assay of DNA repair efficiency after doxorubicin; format: cell-based, human; conditions: YMU1 treatment, after removal of doxorubicin (0.1 μM)
Procedure: FIG. 15. […] DNA repair efficiency was measured by comet assay at indicated time after removal of doxorubicin (0.1 μM) in MDA-MB231 cells. Image of DNA comet was acquired and quantified by using scion image software for tail moment determination. Data were expressed as mean±s.d. by counting at least 70 comets per sample in 3 independent experiments. **, P<0.01 based on a two-tailed Student's t-test.
Alkaline comet assays were performed using a Trevigen's Comet Assay kit (4250-050-k) according to the manufacturer's instruction. DNA was stained with SYBR Green, and slides were photographed digitally (Olympus BX51 microscope and Olympus camera). Tail moments were analyzed using Scoin Image software.

[3] = tested on: HCT-116 p53−/− cells; assay: In vivo xenograft model, sensitization to low-dose doxorubicin; set-up: species or system Balb/c nude mice
Procedure: FIG. 16. In vitro and in vivo effect of YMU1 on doxorubicin sensitization. (A) A panel of cell lines were pre-treated with vehicle, YMU1 (compound 21), D6 (ethyl 4-(2-chloroacetyl)piperazine-1-carboxylate) or D7 (compound 28) for 3 days and were exposed to different concentration of doxorubicin for 4 h. […] The enhancement (fold) of doxorubicin sensitivity in each cell line was calculated. Data represent mean±s.d., n=3; each experiment was quadruplex. Inset indicates the IC50 value of doxorubicin in various cell lines. […] Following overnight culture, cells were refreshed with growth medium. After 14 days of culture, colonies were fixed, stained by crystal violet and counted. (C) HCT-116 p53^−/− cells were subcutaneously implanted in the right flank of Balb/c nude mice (each experimental group n=8). Arrow indicated the time of stopping drug treatment. The tumor volume was estimated as described in Methods of the Invention section. (D) After 2 weeks recovered from treatment, mice were sacrificed for tumor weight measurement. Data represent mean±s.e.m; **, P<0.01 by a two-tailed Student's t-test. (E) Ki 67 proliferation marker staining of tumor shown in left panel. Scale bar, 50 μm. (F) Model of doxorubicin sensitization by YMU1 in malignant cancer cells. […]
We also used an in vivo xenograft model to examine the effect of YMU1 as an adjuvant on sensitization to low-dose doxorubicin treatment. […] Two weeks after the last injections were administered, mice were sacrificed and tumor weights measured. […]
Female BALB/c AnN.Cg-Foxnl^nu/Crl Nurl mice 6-8 weeks of age (National Laboratory Animal Center, Taiwan) were used for the tumor xenograft model. […] The tumor size was measured every day after initiated drug treatment with an electronic caliper. […]
Monoclonal Ki 67 antibody (B56) was purchased from BD PharMingen. Paraffin-embedded tumor sections (5 μm) were incubated with the primary antibody, detected with a LSAB™ kit (DakoCytomation) according to the manufacturer's instructions and counterstained with hematoxylin.

T1 sequence (P04183 whole entry): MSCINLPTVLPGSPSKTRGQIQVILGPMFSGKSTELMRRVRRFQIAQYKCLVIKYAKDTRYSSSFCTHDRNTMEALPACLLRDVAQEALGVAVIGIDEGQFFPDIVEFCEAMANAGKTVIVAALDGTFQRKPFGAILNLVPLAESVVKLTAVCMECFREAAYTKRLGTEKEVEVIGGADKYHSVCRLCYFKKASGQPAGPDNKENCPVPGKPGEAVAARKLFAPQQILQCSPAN

SMILES: CCOC(=O)N1CCN(C(=O)Cn2sc3nc(C)cc(C)c3c2=O)CC1 [compound 21, Ethyl 4-(2-(4,6-dimethyl-3-oxoisothiazolo[5,4-b]pyridin-2(3H)-yl)acetyl) piperazine-1-carboxylate]
- inhibitory effect on activity of purified thymidine kinase 1 (TK1) [1]: without inhibitory effect
- DNA repair (comet assay, tail moment) [2]: impairment of DNA repair
- growth of tumors, YMU1 combined with doxorubicin ([3]; YMU1 15 mg/kg thrice a week + doxorubicin 1.25 mg/kg twice a week, i.p., 4 weeks): much slower
- tumor proliferation index (Ki 67 immunostaining), YMU1 combined with doxorubicin ([3]; combinatory treatment of YMU1 and doxorubicin): clearly reduced
- average tumor size relative to control mice, YMU1 combined with doxorubicin ([3]; two weeks after the last injections, YMU1 15 mg/kg thrice a week + doxorubicin 1.25 mg/kg twice a week, i.p.): 25%
